This test has as its target T1, C238A VLCAD (Mus musculus, UniProt P50544, C238A).
T1 construct: 3xFLAG (C); host or cells: Hepa 1 to 6 cells
T1 sequence (P50544 42-656 C238A): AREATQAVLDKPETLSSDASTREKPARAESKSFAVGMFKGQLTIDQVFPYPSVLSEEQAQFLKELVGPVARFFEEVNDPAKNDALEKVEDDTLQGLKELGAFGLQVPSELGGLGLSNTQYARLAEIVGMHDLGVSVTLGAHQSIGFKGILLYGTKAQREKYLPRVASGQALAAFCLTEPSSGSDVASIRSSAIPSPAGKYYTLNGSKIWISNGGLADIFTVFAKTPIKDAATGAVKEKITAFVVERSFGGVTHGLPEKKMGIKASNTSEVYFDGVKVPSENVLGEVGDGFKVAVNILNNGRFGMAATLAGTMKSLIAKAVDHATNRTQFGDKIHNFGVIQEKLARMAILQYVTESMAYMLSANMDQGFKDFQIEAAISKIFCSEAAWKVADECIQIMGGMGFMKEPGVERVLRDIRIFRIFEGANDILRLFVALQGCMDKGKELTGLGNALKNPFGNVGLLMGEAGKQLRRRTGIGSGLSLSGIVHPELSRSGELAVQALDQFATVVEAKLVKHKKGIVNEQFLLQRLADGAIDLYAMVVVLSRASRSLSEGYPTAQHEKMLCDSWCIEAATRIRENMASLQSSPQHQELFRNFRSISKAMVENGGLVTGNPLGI
As to the kind of experiment: Hepa 1 to 6 cells expressing FLAG-tagged C238A VLCAD exposed to GSNO. The test is classed as cell-based. The note with it: same GSNO treatment. The procedure: Liver homogenate (final concentration of 0.03 μg/μl) or cell lysate (final concentration of 0.09 μg/μl) in 100 mM potassium phosphate buffer (pH 7.2) containing 0.2% Triton X-100 and 0.1 mM EDTA was mixed with […] ferricenium ion, and the reaction was initiated by the addition of palmitoyl-CoA (the final volume of the assay was 130 μl). […] At least nine concentrations of palmitoyl-CoA, ranging from 0.015 to 2 mM, were used for the experimental determination of the apparent Vmax and KM of VLCAD for each animal. […] A unit of enzyme activity is defined as the amount of enzyme that causes the reduction of […] of ferricenium per minute at room temperature (ε=4.3 mM^−1 cm^−1 at 300 nm) (Izai et al. (1992) J. Biol. Chem., 267:1027-1033). […] The measurement of specific activity of VLCAD in liver homogenates (FIG. 2H) and cell lysates (FIG. 4) was performed in the presence of 0.25 and 0.125 mM palmitoyl-CoA, respectively.
The QuikChange® Lightning Site-Directed Mutagenesis Kit (Agilent Technologies) was used to introduce single amino acid mutations in complementary DNA encoding VLCAD. A cysteine-to-alanine mutant at amino acid position 238 was generated with Ex-Mm01013-M14 (hereinafter referred to as pVLCAD-3×FLAG®), a plasmid encoding mouse VLCAD fused to three FLAG® tags in the C-terminal region of the protein (GeneCopoeia), as a template. […]

As to `N[C@@H](CCC(=O)N[C@@H](CSN=O)C(=O)NCC(=O)O)C(=O)O` [GSNO, S-nitrosoglutathione], the “basal activity of C238A VLCAD mutant in response to GSNO” value is on record as “did not change”.

(Values after US10434079B2, “Compositions and methods for the treatment of fatty acid metabolism disorders” (The Children's Hospital of Philadelphia, priority 2013, dated 2019).)
